# Assay results as given in US20260373156A1, “CANCER TREATMENTS USING MTA-COOPERATIVE PRMT5 INHIBITORS” (AMGEN INC., priority 2022, published 2026).
# What was measured:
# LU5268 NSCLC xenografts = experiment: Tumor growth inhibition, LU5268 NSCLC xenografts (Example 13); assay type: in vivo, Female NOD/SCID mice; details: Compound B 100 mg/kg orally once daily + sotorasib 100 mg/kg; versus either single agent alone
# Excerpt: 10 Female NOD/SCID mice were implanted with LU5268 NSCLC tumor xenografts. Mean tumor volumes for each grouping were between 100-200 mm^3. […] Plotted data represents the TGI (tumor growth inhibition), n=10 for each group.
# MIAPACA2T2 cells [1] = experiment: CellTiter-Glo viability and CalcuSyn synergy, PRMT5 inhibitor + sotorasib, 6 days; details: for Combination Fa: 8640 min
# A549 cells = experiment: CellTiter-Glo viability and CalcuSyn synergy, PRMT5 inhibitor + KRAS G12X inhibitor, 6 days; details: for Combination Fa: 8640 min
# SUM149PT cells = experiment: CellTiter-Glo viability and CalcuSyn synergy, PRMT5 inhibitor + olaparib, 6 days; assay type: cell-based; details: for Combination Fa: 8640 min
# Protocol: Raw luminescent values were converted to fraction affected (Fa) with the following equation: […]
# Synergy analysis was performed using the CalcuSyn software to determine CI scores based on the drug concentrations used and corresponding Fa values. Results are shown in Tables 1-3 below. *CI Values (Calcusyn): Strong Synergism: 0.1-0.3; Synergism: 0.3-0.7; Moderate Synergism: 0.7-0.85; Slight Synergism: 0.85-0.9; Nearly Additive: 0.9-1.1.
# LU99 cells = experiment: CellTiter-Glo viability and CalcuSyn synergy, PRMT5 inhibitor + sotorasib, 6 days; details: for Combination Fa: 8640 min
# H292 cells = experiment: CellTiter-Glo viability and CalcuSyn synergy, PRMT5 inhibitor + palbociclib, 6 days; details: for Combination Fa: 8640 min
# MIAPACA2T2 cells [2] = experiment: CellTiter-Glo viability and CalcuSyn synergy, PRMT5 inhibitor + KIF18A, 6 days; details: for Combination Fa: 8640 min
# [3] = Compound B 0.4374 μM + sotorasib 0.00596 μM
# [4] = Compound B 0.4374 μM + sotorasib 0.009537 μM
# [5] = Compound B 0.4374 μM + sotorasib 0.015259 μM
# [6] = Compound B 0.4374 μM + sotorasib 0.024414 μM
# [7] = Compound B 0.4374 μM + sotorasib 0.039063 μM
# [8] = Compound B 0.4374 μM + sotorasib 0.0625 μM
# [9] = Compound B 0.4374 μM + sotorasib 0.1 μM
# [10] = Compound B 0.0808 μM + KRAS G12X inhibitor 0.010628 μM
# [11] = Compound B 0.0808 μM + KRAS G12X inhibitor 0.020193 μM
# [12] = Compound B 0.0808 μM + KRAS G12X inhibitor 0.038367 μM
# [13] = Compound B 0.0808 μM + KRAS G12X inhibitor 0.072897 μM
# [14] = Compound B 0.0808 μM + KRAS G12X inhibitor 0.138504 μM
# [15] = Compound B 0.0808 μM + KRAS G12X inhibitor 0.263158 μM
# [16] = Compound B 0.0808 μM + KRAS G12X inhibitor 0.5 μM
# [17] = Compound B 0.277008 μM + olaparib 0.103573 μM
# [18] = Compound B 0.277008 μM + olaparib 0.176074 μM
# [19] = Compound B 0.277008 μM + olaparib 0.299326 μM
# [20] = Compound B 0.277008 μM + olaparib 0.508854 μM
# [21] = Compound B 0.277008 μM + olaparib 0.865052 μM
# [22] = Compound B 0.277008 μM + olaparib 1.47059 μM
# [23] = Compound B 0.277008 μM + olaparib 2.5 μM
# [24] = Compound B 0.0384 μM + sotorasib 0.15625 μM
# [25] = Compound B 0.0384 μM + sotorasib 0.3125 μM
# [26] = Compound B 0.0384 μM + sotorasib 0.625 μM
# [27] = Compound B 0.0384 μM + sotorasib 1.25 μM
# [28] = Compound B 0.0384 μM + sotorasib 2.5 μM
# [29] = Compound B 0.0384 μM + sotorasib 5 μM
# [30] = Compound B 0.0384 μM + sotorasib 10 μM
# [31] = Compound B 0.0425 μM + palbociclib 0.044102 μM
# [32] = Compound B 0.0425 μM + palbociclib 0.079383 μM
# [33] = Compound B 0.0425 μM + palbociclib 0.14289 μM
# [34] = Compound B 0.0425 μM + palbociclib 0.257202 μM
# [35] = Compound B 0.0425 μM + palbociclib 0.462963 μM
# [36] = Compound B 0.0425 μM + palbociclib 0.833333 μM
# [37] = Compound B 0.0425 μM + palbociclib 1.5 μM
# [38] = Compound B 0.2302 μM + KIF18A 0.021256 μM
# [39] = Compound B 0.2302 μM + KIF18A 0.040386 μM
# [40] = Compound B 0.2302 μM + KIF18A 0.076734 μM
# [41] = Compound B 0.2302 μM + KIF18A 0.145794 μM
# [42] = Compound B 0.2302 μM + KIF18A 0.277008 μM
# [43] = Compound B 0.2302 μM + KIF18A 0.526316 μM
# [44] = Compound B 0.2302 μM + KIF18A 1 μM
smiles,measurement,setting,value
Cc1cc2cc(C(=O)N(Cc3ccc(C(F)(F)F)cn3)[C@@H](C)c3ncccn3)ccc2nc1N [Compound B],anti-tumor activity,LU5268 NSCLC xenografts,significant anti-tumor activity versus either single agent alone
same,Computed CI value,MIAPACA2T2 cells [1]; [3],0.533
same,Combination Fa,MIAPACA2T2 cells [1]; [3],0.678
same,Computed CI value,MIAPACA2T2 cells [1]; [4],0.425
same,Combination Fa,MIAPACA2T2 cells [1]; [4],0.749
same,Computed CI value,MIAPACA2T2 cells [1]; [5],0.443
same,Combination Fa,MIAPACA2T2 cells [1]; [5],0.781
same,Computed CI value,MIAPACA2T2 cells [1]; [6],0.535
same,Combination Fa,MIAPACA2T2 cells [1]; [6],0.798
same,Computed CI value,MIAPACA2T2 cells [1]; [7],0.543
same,Combination Fa,MIAPACA2T2 cells [1]; [7],0.838
same,Computed CI value,MIAPACA2T2 cells [1]; [8],0.471
same,Combination Fa,MIAPACA2T2 cells [1]; [8],0.887
same,Computed CI value,MIAPACA2T2 cells [1]; [9],0.83
same,Combination Fa,MIAPACA2T2 cells [1]; [9],0.875
same,Computed CI value,A549 cells; [10],0.38
same,Combination Fa,A549 cells; [10],0.5945
same,Computed CI value,A549 cells; [11],0.366
same,Combination Fa,A549 cells; [11],0.6255
same,Computed CI value,A549 cells; [12],0.247
same,Combination Fa,A549 cells; [12],0.7012
same,Computed CI value,A549 cells; [13],0.284
same,Combination Fa,A549 cells; [13],0.7187
same,Computed CI value,A549 cells; [14],0.27
same,Combination Fa,A549 cells; [14],0.7582
same,Computed CI value,A549 cells; [15],0.409
same,Combination Fa,A549 cells; [15],0.7615
same,Computed CI value,A549 cells; [16],0.503
same,Combination Fa,A549 cells; [16],0.7849
same,Computed CI value,SUM149PT cells; [17],0.618
same,Combination Fa,SUM149PT cells; [17],0.747
same,Computed CI value,SUM149PT cells; [18],0.579
same,Combination Fa,SUM149PT cells; [18],0.769
same,Computed CI value,SUM149PT cells; [19],0.777
same,Combination Fa,SUM149PT cells; [19],0.745
same,Computed CI value,SUM149PT cells; [20],0.582
same,Combination Fa,SUM149PT cells; [20],0.813
same,Computed CI value,SUM149PT cells; [21],0.565
same,Combination Fa,SUM149PT cells; [21],0.849
same,Computed CI value,SUM149PT cells; [22],0.543
same,Combination Fa,SUM149PT cells; [22],0.888
same,Computed CI value,SUM149PT cells; [23],0.504
same,Combination Fa,SUM149PT cells; [23],0.925
same,Computed CI value,LU99 cells; [24],0.307
same,Combination Fa,LU99 cells; [24],0.5467
same,Computed CI value,LU99 cells; [25],0.234
same,Combination Fa,LU99 cells; [25],0.5942
same,Computed CI value,LU99 cells; [26],0.269
same,Combination Fa,LU99 cells; [26],0.5919
same,Computed CI value,LU99 cells; [27],0.273
same,Combination Fa,LU99 cells; [27],0.615
same,Computed CI value,LU99 cells; [28],0.32
same,Combination Fa,LU99 cells; [28],0.6304
same,Computed CI value,LU99 cells; [29],0.321
same,Combination Fa,LU99 cells; [29],0.6694
same,Computed CI value,LU99 cells; [30],0.669
same,Combination Fa,LU99 cells; [30],0.6476
same,Computed CI value,H292 cells; [31],0.421
same,Combination Fa,H292 cells; [31],0.6807
same,Computed CI value,H292 cells; [32],0.403
same,Combination Fa,H292 cells; [32],0.7009
same,Computed CI value,H292 cells; [33],0.284
same,Combination Fa,H292 cells; [33],0.7704
same,Computed CI value,H292 cells; [34],0.308
same,Combination Fa,H292 cells; [34],0.7959
same,Computed CI value,H292 cells; [35],0.395
same,Combination Fa,H292 cells; [35],0.8126
same,Computed CI value,H292 cells; [36],0.587
same,Combination Fa,H292 cells; [36],0.8205
same,Computed CI value,H292 cells; [37],0.878
same,Combination Fa,H292 cells; [37],0.8344
same,Computed CI value,MIAPACA2T2 cells [2]; [38],0.763
same,Combination Fa,MIAPACA2T2 cells [2]; [38],0.5368
same,Computed CI value,MIAPACA2T2 cells [2]; [39],0.591
same,Combination Fa,MIAPACA2T2 cells [2]; [39],0.6323
same,Computed CI value,MIAPACA2T2 cells [2]; [40],0.578
same,Combination Fa,MIAPACA2T2 cells [2]; [40],0.7018
same,Computed CI value,MIAPACA2T2 cells [2]; [41],0.881
same,Combination Fa,MIAPACA2T2 cells [2]; [41],0.7173
same,Computed CI value,MIAPACA2T2 cells [2]; [42],0.826
same,Combination Fa,MIAPACA2T2 cells [2]; [42],0.7944
same,Computed CI value,MIAPACA2T2 cells [2]; [43],1.158
same,Combination Fa,MIAPACA2T2 cells [2]; [43],0.8219
same,Computed CI value,MIAPACA2T2 cells [2]; [44],2.512
same,Combination Fa,MIAPACA2T2 cells [2]; [44],0.8073
